Data: US20220002314A1 (priority 2018, published 2022)
Where two headings read alike, the source gives them in different places.

Legend:
[1] = target: Human α2δ-1 subunit of Cav2.2 calcium channel (Homo sapiens, UniProt P54289); experiment: biochemical; format: binding
Human μ-opioid receptor = Human μ-opioid receptor (Homo sapiens, UniProt P35372); experiment: biochemical; format: binding
Sequence of Human μ-opioid receptor (P35372 whole entry): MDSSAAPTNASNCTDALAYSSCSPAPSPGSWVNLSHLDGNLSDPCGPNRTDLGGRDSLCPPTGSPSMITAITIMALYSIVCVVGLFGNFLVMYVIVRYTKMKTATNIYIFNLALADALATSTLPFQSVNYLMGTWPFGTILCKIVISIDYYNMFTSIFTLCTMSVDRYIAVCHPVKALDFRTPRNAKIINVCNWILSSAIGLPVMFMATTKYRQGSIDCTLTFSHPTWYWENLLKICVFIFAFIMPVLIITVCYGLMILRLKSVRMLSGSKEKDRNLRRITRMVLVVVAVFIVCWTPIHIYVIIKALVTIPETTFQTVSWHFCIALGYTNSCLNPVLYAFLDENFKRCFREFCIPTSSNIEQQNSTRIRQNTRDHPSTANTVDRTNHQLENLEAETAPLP

Sequence of Human α2δ-1 subunit of Cav2.2 calcium channel (P54289 25-1103): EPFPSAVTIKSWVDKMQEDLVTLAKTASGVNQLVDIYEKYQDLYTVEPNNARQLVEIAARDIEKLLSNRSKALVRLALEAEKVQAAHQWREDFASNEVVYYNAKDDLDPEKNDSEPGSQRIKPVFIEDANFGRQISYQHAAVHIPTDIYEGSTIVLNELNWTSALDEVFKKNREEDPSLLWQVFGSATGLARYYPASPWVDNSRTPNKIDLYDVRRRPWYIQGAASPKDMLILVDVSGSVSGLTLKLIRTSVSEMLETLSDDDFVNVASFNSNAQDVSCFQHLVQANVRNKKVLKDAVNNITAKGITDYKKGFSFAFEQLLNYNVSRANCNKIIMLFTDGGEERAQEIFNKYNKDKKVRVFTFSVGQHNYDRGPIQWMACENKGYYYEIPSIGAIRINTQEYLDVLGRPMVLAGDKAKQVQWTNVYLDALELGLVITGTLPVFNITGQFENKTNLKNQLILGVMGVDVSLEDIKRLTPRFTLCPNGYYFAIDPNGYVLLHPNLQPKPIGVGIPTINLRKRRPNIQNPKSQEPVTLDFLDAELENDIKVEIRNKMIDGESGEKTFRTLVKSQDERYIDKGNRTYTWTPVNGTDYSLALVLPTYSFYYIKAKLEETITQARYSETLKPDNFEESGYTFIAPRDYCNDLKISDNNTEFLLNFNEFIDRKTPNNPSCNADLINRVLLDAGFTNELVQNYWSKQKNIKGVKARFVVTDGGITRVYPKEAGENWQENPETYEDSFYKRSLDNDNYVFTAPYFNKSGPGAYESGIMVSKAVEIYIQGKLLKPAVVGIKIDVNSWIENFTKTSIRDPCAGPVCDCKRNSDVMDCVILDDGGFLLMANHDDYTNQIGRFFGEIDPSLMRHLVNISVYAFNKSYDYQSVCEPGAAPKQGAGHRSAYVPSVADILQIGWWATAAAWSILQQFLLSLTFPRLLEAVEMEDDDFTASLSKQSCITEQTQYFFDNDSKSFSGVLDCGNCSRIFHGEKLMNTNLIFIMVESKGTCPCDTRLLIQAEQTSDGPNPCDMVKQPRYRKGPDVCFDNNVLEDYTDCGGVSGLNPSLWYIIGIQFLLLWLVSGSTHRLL

Row | Ki ([1]; read-out: α2δ-1 binding) | Ki (Human μ-opioid receptor; read-out: μ-binding) | SMILES | Ki [1] | Ki (Human μ-opioid receptor) | Ki ([1]; binding to α2δ-1 subunit of voltage-gated calcium channels expressed as Ki, + also Ki>5000 nM or inhibition between 1% and 50%, read-out: α2δ-1 binding)
1 |  |  | CCCC(c1nc2cc(C)c(Br)cc2c(=O)n1CC)N1CCNCC1 (stereo not drawn) [Example 85, 6-bromo-3-ethyl-7-methyl-2-(1-(piperazin-1-yl)butyl)quinazolin-4(3H)-one] | < 500 nM | > 500 nM | 
2 |  |  | CCC[C@@H](c1nc2ccc(Br)cc2c(=O)n1CC)[C@H]1CCNCC1(F)F [Example 195, 6-bromo-2-((R)-1-((R)-3,3-difluoropiperidin-4-yl)butyl)-3-ethylquinazolin-4(3H)-one] | < 500 nM | > 500 nM | 
3 |  |  | CCC[C@H](c1nc2ccc(N3C[C@@H](C)OC4(CCN(CCc5ccccc5)CC4)C3)cc2c(=O)n1CC)N1C[C@@H](C)N[C@@H](C)C1 [Example 157, 2-((R)-1-((3S,5R)-3,5-dimethylpiperazin-1-yl)butyl)-3-ethyl-6-((R)-2-methyl-9-phenethyl-1-oxa-4,9-diazaspiro[5.5]undecan-4-yl)quinazolin-4(3H)-one] |  | > 500 nM | 500 to 5000 nM
4 |  |  | CCCC(c1nc2ccc(OC)cc2c(=O)n1CCOC)N1C[C@@H](C)N[C@@H](C)C1 (stereo partly drawn) [Example 120, 2-(1-((3S,5R)-3,5-dimethylpiperazin-1-yl)butyl)-6-methoxy-3-(2-methoxyethyl)quinazolin-4(3H)-one] | < 500 nM | > 500 nM | 
5 |  |  | CCC[C@@H](c1nc2ccc(Br)cc2c(=O)n1CC)N1CCN[C@H](CF)C1 [Example 57, 6-bromo-3-ethyl-2-((S)-1-((S)-3-(fluoromethyl)piperazin-1-yl)butyl)quinazolin-4(3H)-one] | < 500 nM | > 500 nM | 
6 |  |  | CCC[C@H](c1nc2ccc(NCC[C@@]3(c4ccccn4)CCOC4(CCCC4)C3)cc2c(=O)n1CC)N1C[C@@H](C)N[C@@H](C)C1 [Example 160, 2-((R)-1-((3S,5R)-3,5-dimethylpiperazin-1-yl)butyl)-3-ethyl-6-((2-((R)-9-(pyridin-2-yl)-6-oxaspiro[4.5]decan-9-yl)ethyl)amino)quinazolin-4(3H)-one] | < 500 nM | > 500 nM | 
7 |  |  | CCC[C@@H](c1nc2ccc(N3C[C@H](C)OC4(CCN(CCc5ccccc5)CC4)C3)cc2c(=O)n1CC)N1C[C@@H](C)N[C@@H](C)C1 [Example 155, 2-((S)-1-((3S,5R)-3,5-dimethylpiperazin-1-yl)butyl)-3-ethyl-6-((S)-2-methyl-9-phenethyl-1-oxa-4,9-diazaspiro[5.5]undecan-4-yl)quinazolin-4(3H)-one] | < 500 nM | > 500 nM | 
8 |  |  | CCCC(c1nc2ccc(O)cc2c(=O)n1CC)N1C[C@@H](C)N[C@@H](C)C1 (stereo partly drawn) [Example 12, 2-(1-((3S,5R)-3,5-dimethylpiperazin-1-yl)butyl)-3-ethyl-6-hydroxyquinazolin-4(3H)-one] | < 500 nM | > 500 nM | 
9 |  |  | CCCC(c1nc2ccc(N3CCC(N(C)C)CC3)cc2c(=O)n1CC)N1C[C@@H](C)N[C@@H](C)C1 (stereo partly drawn) [Example 139, 6-(4-(dimethylamino)piperidin-1-yl)-2-(1-((3S,5R)-3,5-dimethylpiperazin-1-yl)butyl)-3-ethylquinazolin-4(3H)-one] | < 500 nM | > 500 nM | 
10 |  |  | CCCC(c1nc2cnccc2c(=O)n1CCOC)N1C[C@@H](C)N[C@@H](C)C1 (stereo partly drawn) [Example 121, 2-(1-((3S,5R)-3,5-dimethylpiperazin-1-yl)butyl)-3-(2-methoxyethyl)pyrido[3,4-d]pyrimidin-4(3H)-one] | < 500 nM | > 500 nM | 
11 |  |  | CCC[C@H](c1nc2ccc(Br)cc2c(=O)n1CC)N1CCN(C)[C@@H](C)C1 [Example 112, 6-bromo-2-((R)-1-((S)-3,4-dimethylpiperazin-1-yl)butyl)-3-ethylquinazolin-4(3H)-one] | 500 to 5000 nM | < 100 nM | 
12 |  |  | CCCC(c1nc2ccc(Br)c(Cl)c2c(=O)n1CC)N1CCNCC1 (stereo not drawn) [Example 91, 6-bromo-5-chloro-3-ethyl-2-(1-(piperazin-1-yl)butyl)quinazolin-4(3H)-one] | < 500 nM | 100 to 500 nM | 
13 | 500 to 5000 nM | > 500 nM | CCCC(c1nc2cc(C(=O)O)ccc2c(=O)n1CC)N1C[C@@H](C)N[C@@H](C)C1 (stereo partly drawn) [Example 179, 2-(1-((3S,5R)-3,5-dimethylpiperazin-1-yl)butyl)-3-ethyl-4-oxo-3,4-dihydroquinazoline-7-carboxylic acid] |  |  | 
14 |  |  | CCC[C@H](c1nc2c(F)cc(OC)cc2c(=O)n1CC)N1CCNCC1 [Example 38, (R)-3-ethyl-8-fluoro-6-methoxy-2-(1-(piperazin-1-yl)butyl)quinazolin-4(3H)-one] | < 500 nM | 100 to 500 nM | 
15 |  |  | CCC[C@H](c1nc2ccc(F)cc2c(=O)n1CC)N1CCN[C@@H](C)C1 [Example 214, 3-ethyl-6-fluoro-2-((R)-1-((S)-3-methylpiperazin-1-yl)butyl)quinazolin-4(3H)-one] | < 500 nM | 100 to 500 nM | 
16 |  |  | CCC[C@@H](c1nc2cnc(C(F)(F)F)cc2c(=O)n1CC)N1CCN[C@@H](C)C1 [Example 235, 3-ethyl-2-((S)-1-((S)-3-methylpiperazin-1-yl)butyl)-6-(trifluoromethyl)pyrido[3,4-d]pyrimidin-4(3H)-one] | > 5000 nM | > 500 nM | 
17 |  |  | CCC[C@H](c1nc2c(F)cc(Br)cc2c(=O)n1CC)N1CCN[C@H](C)C1 [Example 47, 6-Bromo-3-ethyl-8-fluoro-2-((R)-1-((R)-3-methylpiperazin-1-yl)butyl)quinazolin-4(3H)-one] | < 500 nM | > 500 nM | 
18 |  |  | CCC[C@@H](c1nc2cc(F)c(Cl)cc2c(=O)n1CC)N1CCN[C@@H](C)C1 [Example 54, 6-chloro-3-ethyl-7-fluoro-2-((S)-1-((S)-3-methylpiperazin-1-yl)butyl)quinazolin-4(3H)-one] | > 5000 nM | > 500 nM | 
